≈ marks a conversion by molar mass, not a printed value. Entries after “also recorded” stand apart in the source; their conditions may differ.
Experiments:
[1] = system: S. aureus; experiment: Antibiotic activity, MIC; assay type: cell-based; conditions: Staphylococcus aureus
Source text: (§1) Thus, it is possible to achieve an antimicrobial steroid with or without squalamine-like pharmacological activity.

[2] = system: C. albicans; experiment: Antibiotic activity, MIC; assay type: cell-based; conditions: Candida albicans
Source text: as §1

[3] = system: E. coli; experiment: Antibiotic activity, MIC; assay type: cell-based; conditions: Escherichia coli
Source text: as §1

[4] = system: P. aerug; experiment: Antibiotic activity, MIC; assay type: cell-based
Source text: as §1

[5] = MTT assay (Table II); assay type: cell-based; conditions: read-out: Minimum Effective Concentration, MTT assay
Source text: (§2) As set forth in Table II, which follows Table I, the activities of natural and synthetic aminosterols in the different assays vary. In light of the foregoing, it is now possible to screen for steroids with or without squalamine-like pharmacological activity.

[6] = system: human microvascular cells; experiment: Inhibition of endothelial cell cord formation in vitro; assay type: cell-based; conditions: Homo sapiens, Endothelial cell; Table II; read-out: Minimum Effective Concentration, Cord Formation
Source text: Endothelial cells have the capacity in vitro to form tubular aggregates resembling capillaries in various early stages of formation. This conversion occurs under relatively specific conditions, in which essential growth factors along with an effective substratum are provided. It has been shown that both the interaction of growth factors with the endothelial cell and its attachment to a substratum activate the NHE. The activation of this exchanger is believed to be required for subsequent morphologic transformation of the endothelial cell into a multicellular tubular structure.
To assess the effect of compounds on the cord-like structures formed by human microvascular cells when plated in the presence of VEGF (Vascular Endothelial Growth Factor) and basic fibroblast growth factor on a collagen matrix, a standard cord formation assay was used.

[7] = system: Lic; experiment: MTT Lic (Table II); assay type: cell-based; conditions: read-out: Minimum Effective Concentration, MTT Lic
Source text: as §2

[8] = system: vitelline capillaries; experiment: Chick embryo vitelline capillary regression assay; assay type: in vivo
Experimental: Using the chick embryo vitelline capillaries assay, compounds were tested for their ability to induce capillary regression. Each compound was applied in 0.1 ml of 15% Ficol 400 and PBS onto the embryo, and vascular regression was assessed after 60 minutes.
The 3-day chick embryo consists of an embryonic disc from which numerous vessels emerge and return, forming a "FIG. 8"-shaped structure--the embryo in the center with vascular loops extending outward over both poles. […] Following a lag period of around 15 minutes, the constriction of continuity between capillary and secondary vessels, generally on the "venous" side, was observed. Continued pulsatile blood flow progressed, resulting in a "swelling" of the blind tube, followed by a pinching off of the remaining connection and formation of an enclosed vascular sac resembling a "blood island." This process progressed until only the largest vessels remained intact.

[9] = system: Xenopus tadpole, stage 59-60; experiment: Tadpole assay; assay type: in vivo, Xenopus laevis; conditions: 10 μg/ml; for pharmacological response in tadpole (words): stage 59-60
Source text: For example, substances that destroy all of the animal's epithelium, both adult and embryonic, could be regarded as toxic.
The volume of liquid is sufficient for the animal to swim freely and drink from the solution. […] If the volume of liquid is not sufficient to permit oral intake, the effects that are observed would result from absorption through the surface epithelium.
In another embodiment of this assay, a solution of a compound in water can be injected directly into the abdomen of the animal using standard techniques.
After an amount of time, typically about 60 minutes, the occlusion of blood flow through capillaries in the tadpole's tail are observed under an inverted microscope at a magnification of roughly 100×.
In the assay, each of the steroids was dissolved in 100 ml of distilled water at a concentration of 10 μg/ml. Stage 59-60 Xenopus tadpoles were introduced and evaluated by light microscopy and gross observation 1 hour later.

[10] = Effect on fasting blood glucose in mice; assay type: in vivo, mouse; conditions: i.v.
Experimental: To study the effect of steroid administrator or the NHE responsible for secretion of insulin, several of the aminosterols from shark liver were administered to fasting mice. Male CD-1 mice were assigned to one of four treatment groups. Whole blood glucose was tested using glucometer (Lifescan Glucometer II and One Touch test strips). Statistical analysis was via one-way analysis of variance (ANOVA) followed by subsequent Bonferonni's t-test.

[11] = system: Human ovarian carcinoma SKOV3; experiment: Growth inhibition in vitro (Table 7); assay type: cell-based
Experimental: As set forth in Table 7 below, all malignant tumors evaluated in tissue culture, endothelial cells and vascular smooth muscle cells were sensitive to inhibition. Thus, compound 1436 has application in the control of growth factor dependent proliferation of many types of tissue.
Using the assay described above, the anticancer effects of compound 1437 against several cancer lines was assessed.

[12] = target: T1, rabbit NHE3 (Oryctolagus cuniculus, UniProt P26432); conditions: existing agents such as amiloride; cited from earlier work
T1 construct: BCECF internal pH recovery
T1 sequence (P26432 30-832): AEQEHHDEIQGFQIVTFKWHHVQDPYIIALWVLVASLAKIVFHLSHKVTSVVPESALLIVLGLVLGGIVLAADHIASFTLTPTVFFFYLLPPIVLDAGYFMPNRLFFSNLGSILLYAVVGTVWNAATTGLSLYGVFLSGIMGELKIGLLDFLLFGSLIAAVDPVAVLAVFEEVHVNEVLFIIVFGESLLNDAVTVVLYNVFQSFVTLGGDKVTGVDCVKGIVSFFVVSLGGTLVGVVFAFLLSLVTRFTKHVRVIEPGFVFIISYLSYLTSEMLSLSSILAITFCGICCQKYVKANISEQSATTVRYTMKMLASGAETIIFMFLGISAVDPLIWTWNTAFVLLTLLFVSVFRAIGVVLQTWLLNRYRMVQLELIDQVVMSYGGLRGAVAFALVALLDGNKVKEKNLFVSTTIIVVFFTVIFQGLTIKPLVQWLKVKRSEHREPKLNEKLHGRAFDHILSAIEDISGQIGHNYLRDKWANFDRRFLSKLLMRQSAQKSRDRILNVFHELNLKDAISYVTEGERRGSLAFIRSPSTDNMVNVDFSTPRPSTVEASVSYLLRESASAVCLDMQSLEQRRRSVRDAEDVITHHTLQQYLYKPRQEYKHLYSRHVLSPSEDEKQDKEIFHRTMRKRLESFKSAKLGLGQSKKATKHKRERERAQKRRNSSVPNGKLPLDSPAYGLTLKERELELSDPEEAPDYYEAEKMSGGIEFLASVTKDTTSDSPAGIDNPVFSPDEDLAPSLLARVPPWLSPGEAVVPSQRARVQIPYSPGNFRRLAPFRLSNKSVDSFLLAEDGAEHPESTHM

[13] = system: NHE1β; conditions: nucleated erythrocyte isoform; cited from earlier work

## CC(O)[C@H]1CC[C@H]2[C@@H]3CC[C@H]4C[C@@H](NCCCNCCCCN)CC[C@]4(C)[C@H]3CC[C@]12C (stereo partly shown)
[1]
  MIC: 4 µg/mL (≈ 8.93 µM)
[2]
  MIC: 64 µg/mL (≈ 143 µM)
[3]
  MIC: 32 to 64 µg/mL (≈ 71.5 to 143 µM)
[4]
  MIC: 256 µg/mL (≈ 572 µM)

## CC(O)[C@H]1CC[C@H]2[C@@H]3CC[C@H]4C[C@H](NCCCNCCCCN)CC[C@]4(C)[C@H]3CC[C@]12C (stereo partly shown)
[1]
  MIC: 16 µg/mL (≈ 35.7 µM)
[2]
  MIC: 128 µg/mL (≈ 286 µM)
[3]
  MIC: 64 µg/mL (≈ 143 µM)
[4]
  MIC: 128 µg/mL (≈ 286 µM)

## COC(=O)CCC(C)[C@H]1CCC2C3C(CC[C@@]21C)[C@@]1(C)CC[C@@H](NCCN)C[C@H]1C[C@H]3O (stereo partly shown)
[5]
  minimal effective concentration: 2.5 µg/mL

## CC(CC[C@@H](OS(=O)(=O)O)C(C)C)[C@H]1CCC2C3C(CC[C@@]21C)[C@@]1(C)CC[C@H](NCCCNCCCCN)C[C@@H]1C[C@H]3O (stereo partly shown)
[6]
  minimal effective concentration: 0.01 to 0.1 µg/mL
[7]
  minimal effective concentration: 13.2 µg/mL

## CC(CC[C@@H](OS(=O)(=O)O)C(C)C)[C@H]1CCC2C3C(CC[C@@]21C)[C@@]1(C)CC[C@H](NCCCNCCCCNCCCN)C[C@@H]1C[C@H]3O (stereo partly shown)
[7]
  minimal effective concentration: 16.7 µg/mL

## CC(COS(=O)(=O)O)C(=O)CC[C@@H](C)[C@H]1CC[C@H]2[C@@H]3[C@H](O)C[C@H]4C[C@@H](NCCCNCCCCN)CC[C@]4(C)[C@H]3CC[C@]12C (single isomer, unassigned) [Compound 1360]
[8]; within 20 minutes
  effect on circulating embryonic blood: the blood circulating through the embryonic vessels exhibited a brighter red color
[9]
  pharmacological response in tadpole (words): Swelling and lysis of certain erythrocytes occurred, resulting in accumulation of nuclei within certain small vessels of the tail. Subsequent tissue breakdown occurred in areas of tail surrounding these nuclear plugs
[9]; listed as compound 1360
  pharmacological response in tadpole (words): extensive vasocclusion occurred within 60 minutes throughout the tail

## CC(C)C(CO)(CC[C@@H](C)[C@H]1CC[C@H]2[C@@H]3[C@H](O)C[C@H]4C[C@@H](NCCCNCCCCN)CC[C@]4(C)[C@H]3CC[C@]12C)OS(=O)(=O)O (single isomer, unassigned) [Compound 1437]
[10]
  blood glucose effect: caused hyperglycemia in mice
[11]
  anticancer activity: exhibit anticancer activity
[9]
  tissues or functions not affected in tadpole: Animal was otherwise active, with little tissue breakdown noted
  pharmacological response in tadpole (words): Epithelium covering the embryonic portions of the animal, such as the tail and antennae, began to slough off in sheets; also recorded: dramatic effect on the embryonic epithelium covering the tadpole tale

## N=C(N)NC(=O)c1nc(Cl)c(N)nc1N [Amiloride]
[12]
  effect on Vmax of NHE3 (existing agents): affected only Vmax
[13]
  inhibition of NHE1β: inhibited by high concentrations

## CC(C)CCC[C@@H](C)[C@H]1CC[C@H]2[C@@H]3[C@H](O)C[C@H]4C[C@H](NCCCNCCCCN)CC[C@]4(C)[C@H]3CC[C@]12C [Compound 370]
[9]
  pharmacological response in tadpole (words): pharmacologic activity similar to that seen for FX 3

## CC(C)CCC[C@@H](C)[C@H]1CC[C@H]2[C@@H]3[C@H](O)C[C@H]4C[C@@H](NCCCNCCCCN)CC[C@]4(C)[C@H]3CC[C@]12C [Compound 371]
[9]
  pharmacological response in tadpole (words): effects like those produced by compound 1436

## COC(=O)CC[C@@H](C)[C@H]1CC[C@H]2[C@@H]3[C@H](O)C[C@@H]4C[C@@H](NCCN)CC[C@]4(C)[C@H]3CC[C@]12C [Compound 409]
[9]
  pharmacological response in tadpole (words): functionally similar to compound 1437

## COC(=O)CC[C@@H](C)[C@H]1CC[C@H]2[C@@H]3[C@H](O)C[C@@H]4C[C@H](NCCN)CC[C@]4(C)[C@H]3CC[C@]12C [Compound 410]
[9]
  pharmacological response in tadpole (words): functionally similar to compound 1437

## C[C@H](CCC(=O)O)[C@H]1CC[C@H]2[C@@H]3[C@H](O)C[C@@H]4C[C@H](NCCCNCCCCNCCCN)CC[C@]4(C)[C@H]3CC[C@]12C [Compound 412]
[9]
  pharmacological response in tadpole (words): pharmacologic activity similar to that seen for FX 3

## C[C@H](CCC(=O)O)[C@H]1CC[C@H]2[C@@H]3[C@H](O)C[C@@H]4C[C@@H](NCCCNCCCCNCCCN)CC[C@]4(C)[C@H]3CC[C@]12C [Compound 413]
[9]
  pharmacological response in tadpole (words): effects like those produced by compound 1436

## C[C@H](CCC(=O)O)[C@H]1CC[C@H]2[C@@H]3[C@H](O)C[C@@H]4C[C@H](NCCN)CC[C@]4(C)[C@H]3CC[C@]12C [Compound 414]
[9]
  pharmacological response in tadpole (words): pharmacologic activity similar to Fraction 1

## C[C@H](CCC(=O)O)[C@H]1CC[C@H]2[C@@H]3[C@H](O)C[C@@H]4C[C@@H](NCCN)CC[C@]4(C)[C@H]3CC[C@]12C [Compound 415]
[8]
  activity on vitelline capillaries: especially active

## COC(=O)CC[C@@H](C)[C@H]1CC[C@H]2[C@@H]3CC[C@@H]4C[C@H](NCCN)CC[C@]4(C)[C@H]3C[C@H](O)[C@]12C [Compound 416]
[9]
  pharmacological response in tadpole (words): functionally similar to compound 1437

## COC(=O)CC[C@@H](C)[C@H]1CC[C@H]2[C@@H]3C[C@@H](O)[C@H]4C[C@H](NCCN)CC[C@]4(C)[C@H]3CC[C@]12C [Compound 431]
[9]
  pharmacological response in tadpole (words): functionally similar to compound 1437

## COC(=O)CC[C@@H](C)[C@H]1CC[C@H]2[C@@H]3C[C@@H](O)[C@H]4C[C@@H](NCCN)CC[C@]4(C)[C@H]3CC[C@]12C [Compound 432]
[9]
  pharmacological response in tadpole (words): functionally similar to compound 1437

## C[C@H](CCC(=O)O)[C@H]1CC[C@H]2[C@@H]3C[C@@H](O)[C@H]4C[C@@H](NCCN)CC[C@]4(C)[C@H]3CC[C@]12C [Compound 433]
[9]
  pharmacological response in tadpole (words): functionally similar to compound 1437

## COC(=O)CC[C@@H](C)[C@H]1CC[C@H]2[C@@H]3CC[C@H]4C[C@H](NCCCNCCCCNCCCN)CC[C@]4(C)[C@H]3CC[C@]12C [Compound 458]
[9]
  pharmacological response in tadpole (words): pharmacologic activity similar to that seen for FX 3

## COC(=O)CC[C@@H](C)[C@H]1CC[C@H]2[C@@H]3CC[C@H]4C[C@@H](NCCCNCCCCNCCCN)CC[C@]4(C)[C@H]3CC[C@]12C [Compound 459]
[9]
  pharmacological response in tadpole (words): pharmacologic activity similar to that seen for FX 3

## COC(=O)CC[C@@H](C)[C@H]1CC[C@H]2[C@@H]3C[C@@H](O)[C@H]4C[C@H](NCCCNCCCCNCCCN)CC[C@]4(C)[C@H]3CC[C@]12C [Compound 465]
[9]
  pharmacological response in tadpole (words): pharmacologic activity similar to that seen for FX 3

## COC(=O)CC[C@@H](C)[C@H]1CC[C@H]2[C@@H]3C[C@@H](O)[C@H]4C[C@@H](NCCCNCCCCNCCCN)CC[C@]4(C)[C@H]3CC[C@]12C [Compound 466]
[9]
  pharmacological response in tadpole (words): pharmacologic activity similar to that seen for FX 3

## CC(C)CCC[C@@H](C)[C@H]1CC[C@H]2[C@@H]3[C@H](O)C[C@H]4C[C@H](N)CC[C@]4(C)[C@H]3CC[C@]12C [Compound 1363]
[9]
  pharmacological response in tadpole (words): pharmacologic activity similar to Fraction 1

## CC(C)CCC[C@@H](C)[C@H]1CC[C@H]2[C@@H]3CC[C@H]4C[C@@H](NCCCNCCCCNCCCN)CC[C@]4(C)[C@H]3CC[C@]12C [drawing 86]
[5]
  minimal effective concentration: 3 µg/mL

## CC(C)CCC[C@@H](C)[C@H]1CC[C@H]2[C@@H]3[C@H](O)C[C@H]4C[C@H](NCCCNCCCCN)CC[C@]4(C)[C@H]3CC[C@]12C [drawing 94]
[5]
  minimal effective concentration: 4 µg/mL

Reference: patent publication US5994336A, “Method of inhibiting proliferation of cells by administering an aminosterol compound” (priority 1995, dated 1999)
